Like-named read-outs stand apart in the source and are kept apart here. Peptide text beside a SMILES is read from it.
Experiments:
[1] = biological target: T1, hMC4-R (Homo sapiens (Human), UniProt P32245); test: Assay for agonist activity: cAMP accumulation in HEK-293 cells that express hMC4-R; settings: for functional status at MC4-R (agonist / partial agonist): agonist = intrinsic activity 70% or higher, partial agonist 10-70%
Procedure: By “intrinsic activity” is meant the maximal functional activity achievable by a compound in a specified melanocortin receptor expressing cell system, such as the maximal stimulation of adenylyl cyclase.
Accumulation of intracellular cAMP was examined as a measure of the ability of the peptides of the present invention to elicit a functional response in HEK-293 cells that express MC4-R. Confluent HEK-293 cells that express recombinant hMC4-R were detached from culture plates by incubation in enzyme-free cell dissociation buffer. Dispersed cells were suspended in Earle's Balanced Salt Solution containing 10 mM HEPES (pH 7.5), 1 mM MgCl2, 1 mM glutamine, 0.5% albumin and 0.3 mM 3-isobutyl-1-methyl-xanthine (IBMX), a phosphodiesterase inhibitor. […] Cells were exposed for 15 minutes at 37° C. to peptides of the present invention dissolved in DMSO (final DMSO concentration of 1%) at a concentration range of 0.05-5000 nM in a total assay volume of 200 μL. […] Data analysis was performed by nonlinear regression analysis with Graph-Pad Prism® software. The maximum efficacies of the test peptides of the present invention were compared to that achieved by the reference melanocortin agonist NDP-αMSH.

[2] = biological target: T1, hMC4-R; test: Competitive inhibition binding assay using [I125]-NDP-α-MSH, hMC4-R membranes
Procedure: (§1) A competitive inhibition binding assay is performed using membrane homogenates prepared from HEK-293 cells that express recombinant hMC4-R, hMC3-R, or hMC5-R, and from B-16 mouse melanoma cells (containing endogenous MC1-R). In some instances, HEK-293 cells that express recombinant hMC1-R were employed. In the examples that follow, all MC3-R, MC4-R and MC5-R values are for human recombinant receptors. […] Membrane homogenates were incubated with 0.2 nM (for hMC4-R) 0.4 nM (for MC3-R and MC5-R) or 0.1 nM (for mouse B16 MC1-R or hMC1-R) [I^125]-NDP-α-MSH (Perkin Elmer) and increasing concentrations of test peptides of the present invention in buffer containing 25 mM HEPES buffer (pH 7.5) with 100 mM NaCl, 2 mM CaCl2, 2 mM MgCl2, 0.3 mM 1,10-phenanthroline, and 0.2% bovine serum albumin. After incubation for 60 minutes at 37° C., the assay mixture was filtered and the membranes washed three times with ice-cold buffer. Filters were dried and counted in a gamma counter for bound radioactivity. […] Maximal specific binding (100%) was defined as the difference in radioactivity (cpm) bound to cell membranes in the absence and presence of 1 μM NDP-α-MSH. […] Each assay was conducted in triplicate and the actual mean values are described, with results less than 0% reported as 0%. Ki values for test peptides of the present invention were determined using Graph-Pad Prism® curve-fitting software.

[3] = biological target: T1, hMC4-R; test: Competitive binding assay using Eu-NDP-α-MSH (TRF), hMC4-R membranes; settings: averaged; Eu-NDP-α-MSH (values marked *); read-out: MC4-R Ki
Procedure: Alternatively, a competitive inhibition binding assay was performed employing Eu-NDP-α-MSH (PerkinElmer Life Sciences catalog No. AD0225) with determination by time-resolved fluorometry (TRF) of the lanthanide chelate. […] After incubation for 90 minutes at 37° C., the reaction was stopped by filtration over AcroWell 96-well filter plates (Pall Life Sciences). The filter plates were washed 4 times with 200 μL of ice-cold phosphate-buffered saline. DELFIA Enhancement solution (PerkinElmer Life Sciences) was added to each well. […] Each assay was conducted in duplicate and mean values were utilized. Ki values were determined by curve-fitting with Graph-Pad Prism® software using a one-site fixed-slope competition binding model.

[4] = biological target: T2, hMC1-R (Homo sapiens (Human), UniProt Q01726); test: Functional assay (EC50 and intrinsic activity) at hMC1-R; type: cell-based
T2 sequence (Q01726 whole entry): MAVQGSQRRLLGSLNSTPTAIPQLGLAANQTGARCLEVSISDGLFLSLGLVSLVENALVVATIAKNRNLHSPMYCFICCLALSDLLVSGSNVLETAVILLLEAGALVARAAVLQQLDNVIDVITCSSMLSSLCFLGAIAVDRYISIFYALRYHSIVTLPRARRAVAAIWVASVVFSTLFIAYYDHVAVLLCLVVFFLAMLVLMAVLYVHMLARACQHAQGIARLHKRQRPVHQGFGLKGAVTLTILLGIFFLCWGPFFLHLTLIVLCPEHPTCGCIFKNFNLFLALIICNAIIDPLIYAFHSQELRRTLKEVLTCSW

[5] = biological target: T2, hMC1-R; test: Competitive inhibition binding assay, human recombinant MC1-R
Procedure: as §1

[6] = averaged, [I125]-NDP-α-MSH (values not marked *), read-out: MC4-R Ki

T1 sequence (P32245 whole entry): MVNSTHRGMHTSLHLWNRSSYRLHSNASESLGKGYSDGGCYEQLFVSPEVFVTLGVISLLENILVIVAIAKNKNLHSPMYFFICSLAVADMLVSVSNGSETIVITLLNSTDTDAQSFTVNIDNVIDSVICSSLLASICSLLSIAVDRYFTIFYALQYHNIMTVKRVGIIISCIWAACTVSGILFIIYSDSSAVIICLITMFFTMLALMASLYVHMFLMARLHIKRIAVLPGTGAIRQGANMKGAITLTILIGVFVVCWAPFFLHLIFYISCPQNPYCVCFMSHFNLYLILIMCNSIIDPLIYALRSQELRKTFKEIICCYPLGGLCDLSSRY

Row | SMILES | EC50 [1] [nM] | Ki [3] [nM] | Ki [5] [nM] | further results
1 | CC(=O)N[C@H](CCCNC(=N)N)C(=O)N[C@H]1CC(=O)NCCCC[C@@H](C(N)=O)NC(=O)[C@H](Cc2c[nH]c3ccccc23)NC(=O)[C@H](CCCNC(=N)N)NC(=O)[C@@H](Cc2ccccc2)NC(=O)[C@H](CCC(N)=O)NC1=O [compound 71, Ac-D-Arg-cyclo(Asp- Gln-D-Phe-Arg-Trp- Lys)-NH2] | 2 |  |  | Ki [2, 6]: 45 nM; Ki ([2]; read-out: hMC4-R (Ki)): 45 nM
2 | CC(=O)NC[C@@H]1NC(=O)[C@@H](NC(=O)[C@H](CCCNC(=N)N)NC(C)=O)CC(=O)NCCCC[C@@H](C(N)=O)NC(=O)[C@H](Cc2c[nH]c3ccccc23)NC(=O)[C@H](CCCNC(=N)N)NC(=O)[C@@H](Cc2ccccc2)NC1=O [compound 114, Ac-Arg-cyclo(Asp- Dab(Acetyl)-D-Phe-Arg- Trp-Lys)-NH2] |  | 88 |  | 
3 | CC(=O)N[C@@H](CCCNC(=N)N)C(=O)N[C@H]1CC(=O)NCCCC[C@@H](C(N)=O)NC(=O)[C@H](Cc2c[nH]c3ccccc23)NC(=O)[C@H](CCCNC(=N)N)NC(=O)[C@@H](Cc2ccccc2)NC(=O)[C@H](CNC(=O)[C@H]2CCNC2)NC1=O [compound 118, Ac-Arg-cyclo(Asp- Dap(betaPro)-D-Ph- Arg-Trp-Lys)-NH2] |  | 145 |  | 
4 | CC(=O)N[C@@H](CCCNC(=N)N)C(=O)N[C@H]1CC(=O)NCCCC[C@@H](C(N)=O)NC(=O)[C@H](Cc2c[nH]c3ccccc23)NC(=O)[C@H](CCCNC(=N)N)NC(=O)[C@@H](Cc2ccccc2)NC(=O)[C@@H]2C[C@@H](Cc3ccccc3Cl)CN2C1=O [compound 123, Ac-Arg-cyclo(Asp- Pro(4R-2-Cl-Bzl)-D- Phe-Arg-Trp-Lys)-NH2] |  | 8 |  | 
5 | CC(=O)N[C@@H](CCCNC(=N)N)C(=O)N[C@H]1CC(=O)NCCCC[C@@H](C(N)=O)NC(=O)[C@H](Cc2c[nH]c3ccccc23)NC(=O)[C@H](CCCNC(=N)N)NC(=O)[C@@H](Cc2ccccc2)NC(=O)[C@@H]2C[C@@H](Cc3cccc(Cl)c3)CN2C1=O [compound 124, Ac-Arg-cyclo(Asp- Pro(4R-3-Cl-Bzl)-D- Phe-Arg-Trp-Lys)-NH2] |  | 19 |  | 
6 | CC(=O)N[C@@H](CCCNC(=N)N)C(=O)N[C@H]1CCCC(=O)NCC[C@@H](C(N)=O)NC(=O)[C@H](Cc2c[nH]c3ccccc23)NC(=O)[C@H](CCCNC(=N)N)NC(=O)[C@@H](Cc2ccccc2)NC(=O)[C@H](Cc2c[nH]cn2)NC1=O [compound 126, Ac-Arg-cyclo(hGlu-His- D-Phe-Arg-Trp-Dab)- NH2] | 0.047 | 1 |  | functional status at MC4-R (agonist / partial agonist) [1]: agonist
7 | CC(=O)N[C@@H](CCCNC(=N)N)C(=O)N[C@H]1CCCC(=O)NCC[C@@H](C(N)=O)NC(=O)[C@H](Cc2c[nH]c3ccccc23)NC(=O)[C@H](CCCNC(=N)N)NC(=O)[C@@H](Cc2ccccc2)NC(=O)[C@H](CCN)NC1=O [compound 127, Ac-Arg-cyclo(hGlu-Dab- D-Phe-Arg-Trp-Dab)- NH2] | 0.06 | 2 |  | functional status at MC4-R (agonist / partial agonist) [1]: agonist
8 | CC(=O)N[C@@H](CCCNC(=N)N)C(=O)N[C@H]1CCNC(=O)CCC[C@@H](C(N)=O)NC(=O)[C@H](Cc2c[nH]c3ccccc23)NC(=O)[C@H](CCCNC(=N)N)NC(=O)[C@@H](Cc2ccccc2)NC(=O)[C@H](Cc2c[nH]cn2)NC1=O [compound 128, Ac-Arg-cyclo(Dab-His- D-Phe-Arg-Trp-hGlu)- NH2] |  |  |  | functional status at MC4-R (agonist / partial agonist) [1]: agonist
9 | CC(=O)N[C@H](CCCCN)C(=O)N[C@H]1CCCNC(=O)CC[C@@H](C(N)=O)NC(=O)[C@H](Cc2c[nH]c3ccccc23)NC(=O)[C@H](CCCNC(=N)N)NC(=O)[C@@H](Cc2ccccc2)NC(=O)[C@H](Cc2c[nH]cn2)NC1=O [compound 133, Ac-D-Lys-cyclo(Orn- His-D-Phe-Arg-Trp- Glu)-NH2] |  | 8 |  | 

Further lines, with some results ahead:

Row | EC50 [1] [nM] | Ki [3] [nM] | Ki [5] [nM] | SMILES | further results
10 | 0.065 | 4 |  | CC(=O)N[C@@H](CCCNC(=N)N)C(=O)N[C@H]1CCNC(=O)CCC[C@@H](C(N)=O)NC(=O)[C@H](Cc2c[nH]c3ccccc23)NC(=O)[C@H](CCCNC(=N)N)NC(=O)[C@@H](Cc2ccccc2)NC(=O)[C@H](CCN)NC1=O [compound 129, Ac-Arg-cyclo(Dab-Dab- D-Phe-Arg-Trp-hGlu)- NH2] | functional status at MC4-R (agonist / partial agonist) [1]: agonist
11 |  |  | 840 | CC(=O)N[C@H](CCCNC(=N)N)C(=O)N[C@H]1CCCNC(=O)CC[C@@H](C(N)=O)NC(=O)[C@H](Cc2c[nH]c3ccccc23)NC(=O)[C@H](CCCNC(=N)N)NC(=O)[C@@H](Cc2ccccc2)NC(=O)[C@H](CC(N)=O)NC1=O [compound 156, Ac-D-Arg-cyclo(Orn- Asn-D-Phe-Arg-Trp- Glu)-NH2] | EC50 [4]: 80 nM
12 | 0.825 |  | 133 | CC(=O)N[C@@H](CCCNC(=N)N)C(=O)N[C@H]1CCNC(=O)CCC[C@@H](C(N)=O)NC(=O)[C@H](Cc2c[nH]c3ccccc23)NC(=O)[C@H](CCCNC(=N)N)NC(=O)[C@@H](Cc2ccccc2)NC(=O)[C@H](CCC(N)=O)NC1=O [compound 159, Ac-Arg-cyclo(Dab-Gln- D-Phe-Arg-Trp-hGlu)- NH2] | EC50 [4]: 26 nM; Ki [2, 6]: 4 nM; Ki ([2]; read-out: hMC4-R (Ki)): 4 nM
13 | 0.245 |  | 295 | CC(=O)N[C@@H](CCCNC(=N)N)C(=O)N[C@H]1CCCC(=O)NCC[C@@H](C(N)=O)NC(=O)[C@H](Cc2c[nH]c3ccccc23)NC(=O)[C@H](CCCNC(=N)N)NC(=O)[C@@H](Cc2ccccc2)NC(=O)[C@H](CC(N)=O)NC1=O [compound 160, Ac-Arg-cyclo(hGlu-Asn- D-Phe-Arg-Trp-Dab)- NH2] (HELM PEPTIDE1{[ac].R.[O=C([C@H](CCCC(=O)[*:3])N[*:1])[*:2]].N.[dF].R.W.[Dab].[am]}$PEPTIDE1,PEPTIDE1,3:R3-8:R3$$$V2.0) | Ki [2, 6]: 8 nM; Ki ([2]; read-out: hMC4-R (Ki)): 8 nM
14 |  |  | 155 | CC(=O)N[C@@H](CCCNC(=N)N)C(=O)N[C@H]1CCC(=O)NCCC[C@@H](C(N)=O)NC(=O)[C@H](Cc2c[nH]c3ccccc23)NC(=O)[C@H](CCCNC(=N)N)NC(=O)[C@@H](Cc2ccccc2)NC(=O)[C@H](CC(N)=O)NC1=O [compound 161, Ac-Arg-cyclo(Glu-Asn- D-Phe-Arg-Trp-Orn)- NH2] | EC50 [4]: 13 nM; EC50 ([1]; read-out: hMC4-R EC50): 0.413 nM
15 | 0.85 |  | 255 | CC(=O)N[C@@H](CCCNC(=N)N)C(=O)N[C@H]1CCCCNC(=O)C[C@@H](C(N)=O)NC(=O)[C@H](Cc2ccc3ccccc3c2)NC(=O)[C@H](CCCNC(=N)N)NC(=O)[C@@H](Cc2ccccc2)NC(=O)[C@H](CC(N)=O)NC1=O [compound 162, Ac-Arg-cyclo(Lys-Asn- D-Phe-Arg-Nal 2-Asp)- NH2] (HELM PEPTIDE1{[ac].R.K.N.[dF].R.[O=C([C@H](Cc1ccc2ccccc2c1)N[*:1])[*:2]].D.[am]}$PEPTIDE1,PEPTIDE1,3:R3-8:R3$$$V2.0) | EC50 [4]: 22 nM; Ki [2, 6]: 5 nM; Ki ([2]; read-out: hMC4-R (Ki)): 5 nM
